Experimental data published in the NIST ThermoML archive (doi:10.1016/j.jct.2014.01.012).

Assay: xn = mol fraction of the nth substance listed
Conditions: 101 kPa, Liquid; for speed of sound: Sing-around technique in a fixed-path interferometer; for mass density: Vibrating tube method

CCCCCCn1cc[n+](C)c1.F[P-](F)(F)(F)(F)F [1-hexyl-3-methylimidazolium hexafluorophosphate] + CCOC(C)=O
Conditions | mass density [kg/m3] | speed of sound [m/s]
293.15 K, x1 = 0.09053 | 985.573 | 1203.8
293.15 K, x1 = 0.1751 | 1047.27 | 1245.1
293.15 K, x1 = 0.2748 | 1103.27 | 1278.6
293.15 K, x1 = 0.3638 | 1142.32 | 1312.1
293.15 K, x1 = 0.4747 | 1181.82 | 1341.9
293.15 K, x1 = 0.5959 | 1215.82 | 1369.5
293.15 K, x1 = 0.6988 | 1239.42 | 1390.2
293.15 K, x1 = 0.7782 | 1254.92 | 1404.4
293.15 K, x1 = 0.8784 | 1272.57 | 1417.2
293.15 K, x1 = 0.9562 | 1285.17 | 1428.1
293.15 K, x1 = 1 | 1291.38 | 1436.9
298.15 K, x1 = 0.09053 | 980.708 | 1182.9
298.15 K, x1 = 0.1751 | 1042.71 | 1226
298.15 K, x1 = 0.2748 | 1098.95 | 1260.9
298.15 K, x1 = 0.3638 | 1138.08 | 1295.7
298.15 K, x1 = 0.4747 | 1177.55 | 1326.9
298.15 K, x1 = 0.5959 | 1211.68 | 1355.6
298.15 K, x1 = 0.6988 | 1235.47 | 1376.8
298.15 K, x1 = 0.7782 | 1251.3 | 1388.5
298.15 K, x1 = 0.8784 | 1269.1 | 1402.5
298.15 K, x1 = 0.9562 | 1281.27 | 1414.1
298.15 K, x1 = 1 | 1287.34 | 1423.5
303.15 K, x1 = 0.09053 | 975.56 | 1162.1
303.15 K, x1 = 0.1751 | 1037.99 | 1207
303.15 K, x1 = 0.2748 | 1094.55 | 1243.1
303.15 K, x1 = 0.3638 | 1133.41 | 1279.1
303.15 K, x1 = 0.4747 | 1173.05 | 1312.1
303.15 K, x1 = 0.5959 | 1207.51 | 1341.7
303.15 K, x1 = 0.6988 | 1231.55 | 1363.6
303.15 K, x1 = 0.7782 | 1247.62 | 1375.4
303.15 K, x1 = 0.8784 | 1265.46 | 1388.1
303.15 K, x1 = 0.9562 | 1277.49 | 1402.6
303.15 K, x1 = 1 | 1283.29 | 1410.6
308.15 K, x1 = 0.09053 | 970.46 | 1141.5
308.15 K, x1 = 0.1751 | 1033.19 | 1188.2
308.15 K, x1 = 0.2748 | 1089.85 | 1225.7
308.15 K, x1 = 0.3638 | 1128.89 | 1261.3
308.15 K, x1 = 0.4747 | 1168.92 | 1297.4
308.15 K, x1 = 0.5959 | 1203.51 | 1328
308.15 K, x1 = 0.6988 | 1227.75 | 1350.6
308.15 K, x1 = 0.7782 | 1243.95 | 1365
308.15 K, x1 = 0.8784 | 1261.82 | 1375.1
308.15 K, x1 = 0.9562 | 1273.69 | 1391
308.15 K, x1 = 1 | 1279.4 | 1398.2
313.15 K, x1 = 0.09053 | 964.46 | 1120.9
313.15 K, x1 = 0.1751 | 1027.59 | 1169.4
313.15 K, x1 = 0.2748 | 1084.79 | 1208.5
313.15 K, x1 = 0.3638 | 1124.28 | 1246.5
313.15 K, x1 = 0.4747 | 1164.75 | 1282.8
313.15 K, x1 = 0.5959 | 1199.65 | 1313.8
313.15 K, x1 = 0.6988 | 1224.15 | 1337.7
313.15 K, x1 = 0.7782 | 1240.32 | 1349.8
313.15 K, x1 = 0.8784 | 1258.46 | 1359.6
313.15 K, x1 = 0.9562 | 1270.35 | 1378
313.15 K, x1 = 1 | 1275.48 | 1386
318.15 K, x1 = 0.09053 | 960.532 | 1100.5
318.15 K, x1 = 0.1751 | 1023.8 | 1150.8
318.15 K, x1 = 0.2748 | 1080.46 | 1191.3
318.15 K, x1 = 0.3638 | 1119.61 | 1231.9
318.15 K, x1 = 0.4747 | 1160.23 | 1268.4
318.15 K, x1 = 0.5959 | 1195.59 | 1300.3
318.15 K, x1 = 0.6988 | 1220.56 | 1324.8
318.15 K, x1 = 0.7782 | 1236.86 | 1337.1
318.15 K, x1 = 0.8784 | 1254.52 | 1348.4
318.15 K, x1 = 0.9562 | 1266.02 | 1366
318.15 K, x1 = 1 | 1271.56 | 1374.2
323.15 K, x1 = 0.09053 | 955.246 | 1080.2
323.15 K, x1 = 0.1751 | 1018.76 | 1132.3
323.15 K, x1 = 0.2748 | 1075.54 | 1174.3
323.15 K, x1 = 0.3638 | 1114.9 | 1216.3
323.15 K, x1 = 0.4747 | 1155.92 | 1254.2
323.15 K, x1 = 0.5959 | 1191.86 | 1287.2
323.15 K, x1 = 0.6988 | 1217.05 | 1311.7
323.15 K, x1 = 0.7782 | 1233.69 | 1324.4
323.15 K, x1 = 0.8784 | 1251.25 | 1335.4
323.15 K, x1 = 0.9562 | 1262.25 | 1355.1
323.15 K, x1 = 1 | 1267.63 | 1362.5
